Where two headings read alike, the source gives them in different places.
Assays:
Experiment in all cases: LIVE/DEAD cytotoxicity assay, inhibition of cell proliferation
Format in all cases: cell-based, human
[1] = test system: SW620 cells; details: for GI50: Homo sapiens, read-out: log GI50 values (M), SW620 cells (converted)
Protocol: (§1) The compounds of the general formula (I) according to the invention were tested for a possible cytotoxic or proliferation-inhibiting activity on the human tumour cell lines HeLa, SW620 and A375 (all from ATTC, American Type Culture Collection). To this end, the cells were plated in microtitre plates from Greiner (Manufacturer No. 781092) at a cell density of 1000 cells/microtitre plate well and cultivated in cell culture medium at 37° C. under a 5% carbon dioxide atmosphere. Cell culture media and additives were purchased from Invitrogen and the foetal calf serum from Biochrom. The cell culture media for Hela and A375 cells were used as stated by ATCC (HeLa: MEM, Order No. 10370-047, with 1% sodium bicarbonate, 1% non-essential amino acids, 1% sodium pyruvate, 10% foetal calf serum, 0.1% gentamycin; A375: DMEM, Order No. 41965-039, 2% sodium bicarbonate, 1% L-Glutamax, 10% foetal calf serum, 0.1% gentamycin). The culture medium for the SW620 cells consisted of DMEM, Order No. 41965-039, 1% non-essential amino acids, 10% foetal calf serum, 0.1% gentamycin.
(§2) 24 hours after the cells had been plated in the microtitre plates, various concentrations of at most 100 μM down to a minimum concentration of 5 nM of the test compounds were added to the cells. Stock solutions of the test compounds (10 mM) were prepared in DMSO and stored at −20° C.; for the cytotoxicity tests, the test compounds were diluted in the appropriate cell culture medium.
(§3) After a further 48 hours of incubation, the cells were washed with medium and analysed with the aid of a two-colour fluorescence cytotoxicity/viability test (LIVE/DEAD viability/cytotoxicity ASSAY kit from Molecular Probes, Order No. L-3224), according to the instructions of the manufacturer. To this end, the medium was aspirated and in each case 30 μl of LIVE/DEAD reagent per microtitre plate well were added to the cells, which were then incubated for 30 minutes. The cells were then washed with PBS (phosphate-buffered saline). The number of live cells was analysed by measuring the green fluorescence of the live dye calcein-AM as a component of the LIVE/DEAD reagent using a fluorescence plate reader (Flexstation, from Molecular Devices) at an excitation wavelength of 485 nm and an emission wavelength of 525 nm (cf. Oral, H. B. Endothelium 6, (1998), 143-151).
(§4) Cells only with cell culture medium, without added test compounds, were treated in parallel and analysed as growth controls. The reference compounds used for anti-tumour agents having a cytotoxic or proliferation-inhibiting action were colchicine (from Merck/Calbiochem, Order No. 234115) and Taxol (baccatin III N-benzyl-b-phenylisoserine ester, from Merck/Calbiochem, Order No. 580555) (cf. Schiff, P. B. and Horwitz, S. B., Proceedings of the National Academy of Sciences of the U.S.A. 77, 1561-1565, 1980; Holmes, F. A. et al., Journal of the National Cancer Institute 83, 1797-1805, 1991).
(§5) The cytotoxic effects of the test compounds were expressed as logarithmic GI50 values (growth-inhibiting logarithmic concentration value at which a cell growth reduced by 50% compared to the control without test compounds was measured (cf. Xia et al., Journal of Medicinal Chemistry 44, 3932-3936, 2001; Smith, J. A. et al., Gynecologic Oncology 98, 141-145, 2005)).

[2] = test system: A375 cells; details: for GI50: Homo sapiens, read-out: log GI50 values (M), A375 cells (converted)
Protocol: as §1, §2, §3, §4, §5

[3] = test system: HeLa cells; design: log GI50 values (M), HeLa cells: unit not given here; details: for GI50: Homo sapiens, read-out: log GI50 values (M), HeLa cells (converted)
Protocol: as §1
24 hours after the cells had been plated in the microtitre plates, various concentrations of at most 100 μM down to a minimum concentration of 5 nM of the test compounds were added to the cells. […]
as §3, with “To this end, the medium was aspirated and in each case 30 μl of LIVE/DEAD reagent per microtitre plate well were added to the cells, which were then incubated for 30 minutes. The cells were then washed with PBS (phosphate-buffered saline).” left out
Cells only with cell culture medium, without added test compounds, were treated in parallel and analysed as growth controls. […]

[4] = 48 hours of incubation, calcein-AM fluorescence, cell growth reduced by 50% compared to control

COc1cc2c(c(OC)c1OC)-c1ccc(OC)c(=O)cc1[C@@H](NC(C)=O)CC2 [Colchicine, colchicine]
GI50 ([1]; SW-620, 48 h): 1.26e-08 M
GI50 ([2]; A-375, 48 h): 2e-08 M
GI50 ([3]; 48 h): 1.58e-08 M

CO[C@@H]1[C@@H](OC)[C@H](O[C@@H]2CC(=O)[C@@H]3CCN(Cc4cc5c(cc43)OCO5)C(=O)[C@H]2O)O[C@H](CO)[C@H]1OC [Cripowellin II, cripowellin II]
log GI50 values (M), SW620 cells [1, 4]: 6.9 -log M
log GI50 values (M), A375 cells [2, 4]: 8.0 M
log GI50 values (M), HeLa cells [3, 4]: 8.7

CC(=O)O[C@H]1C(=O)[C@@]2(C)[C@H]([C@H](OC(=O)c3ccccc3)[C@]3(O)C[C@H](OC(=O)[C@H](O)[C@@H](NC(=O)c4ccccc4)c4ccccc4)C(C)=C1C3(C)C)[C@]1(OC(C)=O)CO[C@@H]1C[C@@H]2O [Taxol]
GI50 ([1]; SW-620, 48 hours of incubation, calcein-AM fluorescence, cell growth reduced by 50% compared to control): 1e-07 M
GI50 ([2]; A-375, 48 hours of incubation, calcein-AM fluorescence, cell growth reduced by 50% compared to control): 1.26e-07 M
GI50 [3, 4]: 1e-07 M

Reference: patent US20090131406A1 (BAYER CROPSCIENCE AG, priority 2005, published 2009)
